Experimental data reported in ChEMBL document CHEMBL1201862, “PubChem BioAssay data set” (2004).
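1) Cells in 96-well plates. 2) Compound, 48 h, 5 concentrations. 3) Linear interpolation between surrounding doses. 4) Unreached endpoint = highest concentration. GI50: concentration for 50% inhibition of growth.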 Active and inactive are the calls of the source. Rule as the data show it: active = GI50 up to about 1.1 µM and inactive = higher.

Assays:
Test in all cases: growth of human tumour cells (NCI), 48 h
[1] = tested on: HOP-62
[2] = tested on: COLO 205
[3] = tested on: 786-0
[4] = tested on: NCI-H23
[5] = tested on: IGROV-1
[6] = tested on: SF-295
[7] = tested on: SNB-19
[8] = tested on: NCI/ADR-RES
[9] = tested on: U-251
[10] = tested on: SK-MEL-2
[11] = tested on: UACC-62
[12] = tested on: HCT-116
[13] = tested on: HCC 2998
[14] = tested on: SF-268
[15] = tested on: PC-3
[16] = tested on: SK-MEL-28
[17] = tested on: OVCAR-3
[18] = tested on: NCI-H522
[19] = tested on: RPMI-8226
[20] = tested on: M14
[21] = tested on: RXF 393
[22] = tested on: Hs-578T
[23] = tested on: SK-OV-3
[24] = tested on: HT-29
[25] = tested on: OVCAR-8
[26] = tested on: OVCAR-5
[27] = tested on: LOX IMVI
[28] = tested on: MCF7
[29] = tested on: DU-145
[30] = tested on: EKVX
[31] = tested on: Malme-3M
[32] = tested on: CAKI-1
[33] = tested on: MOLT-4
[34] = tested on: KM12
[35] = tested on: MDA-N
[36] = tested on: UO-31
[37] = tested on: BT-549
[38] = tested on: NCI-H226
[39] = tested on: MDA-MB-435
[40] = tested on: SN12C
[41] = tested on: A498
[42] = tested on: SNB-75
[43] = tested on: ACHN
[44] = tested on: UACC-257
[45] = tested on: T47D
[46] = tested on: K562
[47] = tested on: SR
[48] = tested on: SF-539
[49] = tested on: SK-MEL-5
[50] = tested on: HOP-92
[51] = tested on: A549
[52] = tested on: CCRF-CEM
[53] = tested on: HCT-15
[54] = tested on: MDA-MB-231
[55] = tested on: OVCAR-4
[56] = tested on: SW-620
[57] = tested on: TK-10
[58] = tested on: NCI-H460
[59] = tested on: HL-60

COc1cccc(C2c3cc4c(cc3OC(C)(N3CCCC3)C2C)OCO4)c1O (centres undefined)
GI50 [1]: 7.98 µM (inactive) | GI50 [2]: 3.13 µM (inactive) | GI50 [3]: 4.71 µM (inactive) | GI50 [4]: 3.05 µM (inactive) | GI50 [5]: 6.01 µM (inactive) | GI50 [6]: 4.9 µM (inactive) | GI50 [7]: 4.06 µM (inactive) | GI50 [8]: 2.72 µM (inactive) | GI50 [9]: 4.35 µM (inactive) | GI50 [10]: 4.98 µM (inactive) | GI50 [11]: 4.6 µM (inactive) | GI50 [12]: 4.25 µM (inactive) | GI50 [13]: 8.09 µM (inactive) | GI50 [14]: 8.22 µM (inactive) | GI50 [15]: 3.32 µM (inactive) | GI50 [16]: 12.2 µM (inactive) | GI50 [17]: 2.05 µM (inactive) | GI50 [18]: 2.05 µM (inactive) | GI50 [19]: 5.32 µM (inactive) | GI50 [20]: 3.08 µM (inactive) | GI50 [21]: 2.89 µM (inactive) | GI50 [22]: 2 µM (inactive) | GI50 [23]: 3.44 µM (inactive) | GI50 [24]: 2.36 µM (inactive) | GI50 [25]: 7.87 µM (inactive) | GI50 [26]: 8.36 µM (inactive) | GI50 [27]: 4.82 µM (inactive) | GI50 [28]: 3.47 µM (inactive) | GI50 [29]: 3.52 µM (inactive) | GI50 [30]: 7.91 µM (inactive) | GI50 [31]: 3.89 µM (inactive) | GI50 [32]: 5.83 µM (inactive) | GI50 [33]: 6.64 µM (inactive) | GI50 [34]: 3.14 µM (inactive) | GI50 [35]: 1.93 µM (inactive) | GI50 [36]: 10.9 µM (inactive) | GI50 [37]: 3.26 µM (inactive) | GI50 [38]: 4.49 µM (inactive) | GI50 [39]: 1.63 µM (inactive) | GI50 [40]: 6.58 µM (inactive) | GI50 [41]: 6.4 µM (inactive) | GI50 [42]: 2.3 µM (inactive) | GI50 [43]: 11.3 µM (inactive) | GI50 [44]: 5.05 µM (inactive) | GI50 [45]: 12.1 µM (inactive) | GI50 [46]: 3.45 µM (inactive) | GI50 [47]: 2.06 µM (inactive) | GI50 [48]: 4.31 µM (inactive) | GI50 [49]: 2.57 µM (inactive) | GI50 [50]: 11.5 µM (inactive) | GI50 [51]: 6.7 µM (inactive) | GI50 [52]: 9.06 µM (inactive) | GI50 [53]: 3.6 µM | GI50 [54]: 3.01 µM (inactive) | GI50 [55]: 13.3 µM (inactive) | GI50 [56]: 4.01 µM (inactive) | GI50 [57]: 5.4 µM (inactive) | GI50 [58]: 5.5 µM (inactive) | GI50 [59]: 2.71 µM (inactive)
